Test results published in patent publication US11254686B1 (Corvus Pharmaceuticals, Inc., priority 2017, dated 2022).

Columns and labels:
adenosine A2B receptor = adenosine A2B receptor (Homo sapiens (Human), UniProt P29275); experiment: Adenosine receptor activity assay (Table 1), A2B activity; type: biochemical; conditions: for Ratio: A2A activity to A2B activity (A2A/A2B); for IC50: read-out: Ave A2B cAMP IC50
adenosine A2A receptor = adenosine A2A receptor (Homo sapiens (Human), UniProt P29274); experiment: Adenosine receptor activity assay (Table 1), A2A activity; type: biochemical; conditions: read-out: Ave A2A cAMP IC50
Sequence of adenosine A2A receptor (P29274 whole entry): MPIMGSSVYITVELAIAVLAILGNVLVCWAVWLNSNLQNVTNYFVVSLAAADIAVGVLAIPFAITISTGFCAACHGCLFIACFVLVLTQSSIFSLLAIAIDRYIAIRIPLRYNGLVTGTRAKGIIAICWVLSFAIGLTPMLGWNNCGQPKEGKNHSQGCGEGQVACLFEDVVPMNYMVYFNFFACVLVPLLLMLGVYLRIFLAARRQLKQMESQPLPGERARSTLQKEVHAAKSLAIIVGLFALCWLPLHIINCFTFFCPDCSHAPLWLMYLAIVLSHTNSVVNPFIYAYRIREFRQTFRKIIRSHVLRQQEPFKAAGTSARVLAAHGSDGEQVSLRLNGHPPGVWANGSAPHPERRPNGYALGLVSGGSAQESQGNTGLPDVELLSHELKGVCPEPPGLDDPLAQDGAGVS

Sequence of adenosine A2B receptor (P29275 whole entry): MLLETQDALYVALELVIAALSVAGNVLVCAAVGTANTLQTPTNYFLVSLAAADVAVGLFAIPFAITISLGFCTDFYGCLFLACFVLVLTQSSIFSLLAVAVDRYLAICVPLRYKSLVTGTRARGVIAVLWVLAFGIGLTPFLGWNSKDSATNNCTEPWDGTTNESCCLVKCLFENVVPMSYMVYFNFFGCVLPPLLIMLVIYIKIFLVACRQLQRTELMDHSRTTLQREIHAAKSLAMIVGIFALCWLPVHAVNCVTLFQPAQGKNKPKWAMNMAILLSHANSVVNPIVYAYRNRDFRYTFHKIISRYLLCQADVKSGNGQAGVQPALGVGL

| SMILES | Ratio (adenosine A2B receptor) | IC50 (adenosine A2B receptor) [nM] | IC50 (adenosine A2A receptor) [nM] |
| --- | --- | --- | --- |
| O=C(NCCn1ccnc1)c1nc(NCc2cncc(F)c2)nc2ccsc12 [Example Z85, N-(2-(1H-Imidazol-1-yl)ethyl)-2-(((5-fluoropyridin-3-yl)methyl)amino)thieno[3,2-d]pyrimidine-4-carboxamide] | 1.04 | > 500 | > 500 |
| Cc1ncccc1CNC(=O)c1nc(NCc2cccnc2C)nc2ccsc12 [Example Z88, N-((2-Methylpyridin-3-yl)methyl)-2-(((2-methylpyridin-3-yl)methyl)amino)thieno[3,2-d]pyrimidine-4-carboxamide] | 1.00 | > 500 | > 500 |
| COc1ccc(CNC(=O)c2nc(NCc3cccnc3C)nc3ccsc23)cn1 [Example Z94, N-((6-Methoxypyridin-3-yl)methyl)-2-(((2-methylpyridin-3-yl)methyl)amino)thieno[3,2-d]pyrimidine-4-carboxamide] | 1.00 | 100 to 500 | 100 to 500 |
| CC1(O)CN(C(=O)c2nc(NCc3cncc(F)c3)nc3ccsc23)C1 [Example Z98, (2-(((5-Fluoropyridin-3-yl)methyl)amino)thieno[3,2-d]pyrimidin-4-yl)(3-hydroxy-3-methylazetidin-1-yl)methanone] | 22.37 | 10 to 50 | > 500 |
| C[C@H](Nc1nc(C(=O)N2CC(C)(O)C2)c2sccc2n1)c1ccccn1 [Example Z101, (S)-(3-Hydroxy-3-methylazetidin-1-yl)(2-((1-(pyridin-2-yl)ethyl)amino)thieno[3,2-d]pyrimidin-4-yl)methanone] | – | 10 to 50 | 100 to 500 |
| C[C@H](Nc1nc(C(=O)NCc2cncc(C#N)c2)c2sccc2n1)c1ccccn1 [Example Z102, (S)—N-((5-Cyanopyridin-3-yl)methyl)-2-((1-(pyridin-2-yl)ethyl)amino)thieno[3,2-d]pyrimidine-4-carboxamide] | 2.24 | 100 to 500 | 100 to 500 |
| O=C(c1nc(NCc2cccnc2)nc2ccsc12)N1CC[C@@H](O)C1 [Example Z103, (R)-(3-Hydroxypyrrolidin-1-yl)(2-((pyridin-3-ylmethyl)amino)thieno[3,2-d]pyrimidin-4-yl)methanone] | 3.68 | 100 to 500 | > 500 |
| C[C@H](Nc1nc(C(=O)NCc2cncc(C#N)c2)c2sccc2n1)c1cccnc1 [Example Z104, (S)—N-((5-Cyanopyridin-3-yl)methyl)-2-((1-(pyridin-3-yl)ethyl)amino)thieno[3,2-d]pyrimidine-4-carboxamide] | 0.50 | > 500 | 100 to 500 |
| C[C@H](Nc1nc(C(=O)NCCO)c2sccc2n1)c1ccccn1 [Example Z106, (S)—N-(2-hydroxyethyl)-2-((1-(pyridin-2-yl)ethyl)amino)thieno[3,2-d]pyrimidine-4-carboxamide] | 2.95 | 10 to 50 | 100 to 500 |
| CC(C)(Nc1nc(C(=O)N2CCCC2)c2sccc2n1)c1cccnc1 [Example Z112, (2-((2-(Pyridin-3-yl)propan-2-yl)amino)thieno[3,2-d]pyrimidin-4-yl)(pyrrolidin-1-yl)methanone] | 7.09 | 100 to 500 | > 500 |
| COc1cncc(CNc2nc(C(=O)N3CCCC3)c3sccc3n2)c1 [Example Z114, (2-(((5-Methoxypyridin-3-yl)methyl)amino)thieno[3,2-d]pyrimidin-4-yl)(pyrrolidin-1-yl)methanone] | 5.15 | 100 to 500 | > 500 |
| COc1cncc(CNc2nc(C(=O)N3CCC3)c3sccc3n2)c1 [Example Z116, Azetidin-1-yl(2-(((5-methoxypyridin-3-yl)methyl)amino)thieno[3,2-d]pyrimidin-4-yl)methanone] | 4.17 | 100 to 500 | > 500 |
| COc1cncc(CNc2nc(C(=O)N3CC(C)C3)c3sccc3n2)c1 [Example Z117, (2-(((5-Methoxypyridin-3-yl)methyl)amino)thieno[3,2-d]pyrimidin-4-yl)(3-methylazetidin-1-yl)methanone] | 10.87 | 50 to 100 | > 500 |
| O=C(c1nc(NCc2cccc(Cl)c2)nc2ccsc12)N1CC[C@@H](O)C1 [Example Z118, (R)-(2-((3-Chlorobenzyl)amino)thieno[3,2-d]pyrimidin-4-yl)(3-hydroxypyrrolidin-1-yl)methanone] | 13.75 | 50 to 100 | > 500 |
| COc1cncc(CNc2nc(C(=O)N3CC(O)C3)c3sccc3n2)c1 [Example Z119, (3-Hydroxyazetidin-1-yl)(2-(((5-methoxypyridin-3-yl)methyl)amino)thieno[3,2-d]pyrimidin-4-yl)methanone] | 2.08 | 100 to 500 | > 500 |
| O=C(c1nc(NCc2cccc(Cl)c2)nc2ccsc12)N1CCCC1 [Example Z120, (2-((3-Chlorobenzyl)amino)thieno[3,2-d]pyrimidin-4-yl)(pyrrolidin-1-yl)methanone] | 13.39 | 10 to 50 | 100 to 500 |
| COCC(Nc1nc(C(=O)N2CC[C@H](O)C2)c2sccc2n1)c1cccnc1 (stereo partly drawn) [Example Z124, ((S)-3-Hydroxypyrrolidin-1-yl)(2-((2-methoxy-1-(pyridin-3-yl)ethyl)amino)thieno[3,2-d]pyrimidin-4-yl)methanone] | 2.13 | 100 to 500 | > 500 |
| COCC(Nc1nc(C(=O)N2CCCC2)c2sccc2n1)c1cccnc1 (centres unmarked) [Example Z127, (2-((2-Methoxy-1-(pyridin-3-yl)ethyl)amino)thieno[3,2-d]pyrimidin-4-yl)(pyrrolidin-1-yl)methanone] | – | 10 to 50 | 100 to 500 |
| CC1CCN1C(=O)c1nc(N[C@@H](C)c2ccccn2)nc2ccsc12 (stereo partly drawn) [Example Z133, (2-Methylazetidin-1-yl)(2-(((S)-1-(pyridin-2-yl)ethyl)amino)thieno[3,2-d]pyrimidin-4-yl)methanone] | 3.85 | 10 to 50 | 10 to 50 |
| CC(C)(C)OC(=O)N1CCN(C(=O)c2nc(NCc3cncc(F)c3)nc3ccsc23)C1 [Example Z135, tert-Butyl 3-(2-(((5-fluoropyridin-3-yl)methyl)amino)thieno[3,2-d]pyrimidine-4-carbonyl)imidazolidine-1-carboxylate] | 3.11 | 100 to 500 | > 500 |

Further lines, results first:

| Ratio (adenosine A2B receptor) | IC50 (adenosine A2B receptor) [nM] | IC50 (adenosine A2A receptor) [nM] | SMILES |
| --- | --- | --- | --- |
| 11.51 | 50 to 100 | > 500 | COc1cc(F)cc(CNc2nc(C(=O)N3CC(C)(O)C3)c3sccc3n2)c1 [Example Z136, (2-((3-Fluoro-5-methoxybenzyl)amino)thieno[3,2-d]pyrimidin-4-yl)(3-hydroxy-3-methylazetidin-1-yl)methanone] |
| 1.36 | > 500 | > 500 | C[C@H](Nc1nc(C(=O)N2CCN(C(=O)OC(C)(C)C)C2)c2sccc2n1)c1cccnc1 [Example Z140, tert-Butyl (S)-3-(2-((1-(pyridin-3-yl)ethyl)amino)thieno[3,2-d]pyrimidine-4-carbonyl)imidazolidine-1-carboxylate] |
| 2.76 | > 500 | > 500 | NC(=O)c1cncc(CNc2nc(C(=O)N3CCCC3)c3sccc3n2)c1 [Example Z142, 5-(((4-(Pyrrolidine-1-carbonyl)thieno[3,2-d]pyrimidin-2-yl)amino)methyl)nicotinamide] |
| – | 10 to 50 | 100 to 500 | COCCNC(=O)c1nc(NCc2cncc(F)c2)nc2ccsc12 [Example Z146, 2-(((5-Fluoropyridin-3-yl)methyl)amino)-N-(2-methoxyethyl)thieno[3,2-d]pyrimidine-4-carboxamide] |
| 4.87 | > 500 | > 500 | C[C@H](Nc1nc(C(=O)N2CCNC2)c2sccc2n1)c1cccnc1 [Example Z148, (S)-Imidazolidin-1-yl(2-((1-(pyridin-3-yl)ethyl)amino)thieno[3,2-d]pyrimidin-4-yl)methanone] |
| 14.43 | > 500 | > 500 | O=C(c1nc(NCc2cncc(F)c2)nc2ccsc12)N1CCNC1 [Example Z149, (2-(((5-Fluoropyridin-3-yl)methyl)amino)thieno[3,2-d]pyrimidin-4-yl)(imidazolidin-1-yl)methanone] |
| 7.05 | > 500 | > 500 | C[C@H](Nc1nc(C(=O)N[C@H]2CCNC2)c2sccc2n1)c1ccccn1 [Example Z150, 2-(((S)-1-(pyridin-2-yl)ethyl)amino)-N—((S)-pyrrolidin-3-yl)thieno[3,2-d]pyrimidine-4-carboxamide] |
| – | 100 to 500 | 100 to 500 | C[C@H](Nc1nc(C(=O)NCC2CCN(Cc3ccccc3)CC2)c2sccc2n1)c1ccccn1 [Example Z151, (S)—N-((1-Benzylpiperidin-4-yl)methyl)-2-((1-(pyridin-2-yl)ethyl)amino)thieno[3,2-d]pyrimidine-4-carboxamide] |
| 4.52 | 50 to 100 | 100 to 500 | O=C(NC1CCC1)c1nc(NCc2cnccn2)nc2ccsc12 [Example Z154, N-Cyclobutyl-2-((pyrazin-2-ylmethyl)amino)thieno[3,2-d]pyrimidine-4-carboxamide] |
| 18.83 | 50 to 100 | > 500 | O=C(c1nc(NCc2cnccn2)nc2ccsc12)N1CCC1 [Example Z155, Azetidin-1-yl(2-((pyrazin-2-ylmethyl)amino)thieno[3,2-d]pyrimidin-4-yl)methanone] |
| 14.60 | > 500 | > 500 | O=C(c1nc(NCc2cnccn2)nc2ccsc12)N1CC[C@H](O)C1 [Example Z156, (S)-(3-Hydroxypyrrolidin-1-yl)(2-((pyrazin-2-ylmethyl)amino)thieno[3,2-d]pyrimidin-4-yl)methanone] |
| 3.17 | > 500 | > 500 | COCCNC(=O)c1nc(NCc2cnccn2)nc2ccsc12 [Example Z157, N-(2-Methoxyethyl)-2-((pyrazin-2-ylmethyl)amino)thieno[3,2-d]pyrimidine-4-carboxamide] |
